Test results published in ChEMBL document CHEMBL5357080, “Redefining Neurodegenerative Treatment: Synergy of KEAP1, PROTACs, and Inflammatory Modulators” (ACS Med Chem Lett, 2024).

Target: Bromodomain-containing protein 4 (Homo sapiens) (UniProt O60885)
Assay: Induction of degradation of BRD4 in human MDA-MB-468 cells at 0.01 uM measured after 24 to 48 hrs by densitometry analysis relative to control
Format: cell-based
Conditions: time lower […], time upper […]

Activity: 75%
SMILES: Cc1sc2c(c1C)C(c1ccc(Cl)cc1)=N[C@@H](CC(=O)NCC(=O)NCCn1nnc(COc3ccc(Cl)c4c3[C@@H](CN3CC5(CC5)CC3=O)N(C(=O)[C@@H]3CCCC[C@]3(C)C(=O)O)CC4)c1C)c1nnc(C)n1-2
